Assays:
[1] = biological target: Fab311; assay: ITC affinity measurement of peptides to Fab311; format: binding, human; conditions: for affinity/Kd compared with the (NPNA)3 peptide: Fab311, ITC, change vs (NPNA)3; for Kd / No. of sites: ITC, 25 °C, Dulbecco's PBS, Fab311 10.3 μM in cell, peptide 89–122 μM in syringe, single-site model, average and SD of triplicate experiments
Protocol: (§1) ITC affinity measurements were performed using a MicroCal Auto-iTC200 instrument (GE Healthcare). […]
(§2) General. All peptides were ordered from Innopep Inc. with a 10-μg/mL solution of the Fab of interest in blocking buffer. The purity of >98% and contained chlorine counter ions. The pep- membrane was then washed three times for 5 min each in TBST tides have N-terminal acetylation and C-terminal amidation to buffer, after which it was incubated for 2 h with an anti-human eliminate charges at the peptide termini. Fab genes were codon Fab secondary antibody conjugated to HRP (Sigma-Aldrich) at a optimized, synthesized, and cloned into pHCMV3 vectors by 1:20,000 dilution in blocking buffer. […]
(§3) Antibodies 311 and 317 were selected forITC. A MicroCal Auto-iTC200 (GE Healthcare) was used to structural studies because of their functional activity, high avidity perform ITC measurements. Before the experiments, all proteins index, and similar heavy-chain germline genes. were extensively dialyzed against Dulbecco’s PBS (Thermo Evaluation of the Protective Activity of mAbs. mAbs (100 μg for Fischer). The peptides were placed in the syringe at a concentration Ab311 and 300 μg for Ab317 and Ab2A10) against the NANP of 122μM for Ac-NPNANPNA-NH2, 116 μM for Ac-repeats of P. falciparum CSP were administered to 7- to 8-wk-old NPNANPNANPNA-NH2,89μM for Ac-[…]- […]
(§4) C57BL/6 mice (five mice per group) by i.v. injection [in 200 μLof NH2, and 110 μM for Ac-DPNANPNVDPNA-NH2, whereas the […]
(§5) PBS (pH 7.4)]. The mice were challenged 5–10 min later by i.v. concentrations of Fab fragments in the cell were 10.3 and 9.7 μM injection with 2,000 P. berghei chimeric sporozoites expressing for Fab311 and Fab317, respectively. The Fab and peptide P. falciparum CSP (3D7 strain) generated as previously described concentrations were determined by UV absorbance at 280 nm (22). Forty hours later, livers were harvested, and RNA was and 205 nm. Molar extinction coefficients for the peptides were isolated to quantify the malaria-specific 18s rRNA levels by real- estimated using a previously published method (35). Experi-time PCR (34). Inhibition of parasite development was calcu- ments were carried out in triplicate at 25 °C, except for lated by comparing the parasite liver burdens of experimental Fab317 binding to Ac-[…]-NH2, which was […]
(§6) and naive control mice. The statistical analyses were done with done in duplicate, and consisted of 16 injections of 2.45 μL each, the Mann–Whitney U test. Data were plotted using GraphPad with injection duration of 4.9 s, inject io n interval of 180 s, and Prism 6.0 software. No samples were excluded from statistical reference power of 5 μCa l. Fi tt in g of the integrate d titrati on analyses. peaks was performed with Origin 7.0 software using a single-site binding model. The first data point and any outliers were Expression and Purification of Recombinant CSP. The rsCSP con- excluded from the fit. […]
(§7) Two 1-L NaCl, 2.7 mM KCl, pH 8.0) with a 5:1 molar ratio of (NPNA)3 cultures were inoculated the next day with 25 mL overnight peptide to Fab. Crystals were grown using sitting-drop vapor culture and were grown at 37 °C. When the optical density at diffusion with a well solution containing 0.1 M MES (pH 6.0), 600 nm reached a value of 1, the cultures were induced with 36% PEG400, 5% PEG3000 for the Fab311–peptide complex, 1 mM isopropyl β-D-1-thiogalactopyranoside for 6 h. The cells and 0.1 M sodium citrate (pH 4.0), 1 M lithium chloride, 20% then were harvested and lysed by microfluidization. The lysate PEG6000 for the Fab317–peptide complex. Crystals were grown was incubated overnight with Ni cOmplete resin (Roche) and at 298 K and typically appeared within 3 d. Fab311–peptide was eluted using a buffer containing 200 mM imidazole. Typi- crystals were cryo-cooled without additional cryoprotection, cally, 10 mg of protein was obtained per 2 L of culture. Samples while Fab317–peptide crystals were cryoprotected by soaking in […]

[2] = biological target: Fab317; assay: ITC affinity measurement of peptides to Fab317; format: binding, human; conditions: for Kd / No. of sites: ITC, 25 °C, Dulbecco's PBS, Fab317 9.7 μM in cell, single-site model
Protocol: as §1, §2, §3, §4, §5, §6, §7

[3] = peptide 110–122 μM in syringe, average and SD of triplicate experiments
[4] = peptide 89 μM in syringe, duplicate experiments

Row | Compound | affinity/Kd compared with the (NPNA)3 peptide [1] | Kd [1] [nM] | No. of sites [1] | Kd increase compared with (NPNA)3 ([2]; Fab317, ITC, vs (NPNA)3) [fold] | Kd [2, 3] [nM] | No. of sites [2, 3] | relative affinity (in words) ([2]; Fab317, ITC, NVDP-containing peptides, comparator not clearly stated) | Kd [2, 4] [nM] | No. of sites [2, 4]
1 | CC(=O)N[C@@H](CC(N)=O)C(=O)N1CCC[C@H]1C(=O)N[C@@H](CC(N)=O)C(=O)N[C@@H](C)C(=O)N[C@@H](CC(N)=O)C(=O)N1CCC[C@H]1C(=O)N[C@@H](CC(N)=O)C(=O)N[C@@H](C)C(N)=O [(NPNA)2, Ac-NPNANPNA-NH2] | almost identical to that of the (NPNA)3 peptide | 296 ± 19 | 1.50 ± 0.08 | 2.2 | 173 ± 8 | 1.41 ± 0.05 | – | – | –
2 | CC(=O)N[C@@H](CC(N)=O)C(=O)N1CCC[C@H]1C(=O)N[C@@H](CC(N)=O)C(=O)N[C@@H](C)C(=O)N[C@@H](CC(N)=O)C(=O)N1CCC[C@H]1C(=O)N[C@@H](CC(N)=O)C(=O)N[C@@H](C)C(=O)N[C@@H](CC(N)=O)C(=O)N1CCC[C@H]1C(=O)N[C@@H](CC(N)=O)C(=O)N[C@@H](C)C(N)=O [(NPNA)3, Ac-NPNANPNANPNA-NH2] | – | 305 ± 60 | 0.74 ± 0.02 | – | 78 ± 16 | 1.27 ± 0.02 | – | – | –
3 | Ac-DPNANPNVDPNA-NH2 [DPNANPNVDPNA, Ac-DPNANPNVDPNA-NH2] | approximately fivefold lower affinity | 1370 ± 390 | 1.20 ± 0.03 | – | 448 ± 68 | 1.64 ± 0.05 | – | – | –
4 | Ac-NPNVDPNANPNV-NH2 [NPNVDPNANPNV, Ac-NPNVDPNANPNV-NH2] | approximately fivefold lower affinity | 1790 ± 189 | 1.24 ± 0.02 | – | – | – | substantially lower | 12100 ± 2490 | 1.72 ± 0.13

Source: PMC5715787, “Structural basis for antibody recognition of the NANP repeats in Plasmodium falciparum circumsporozoite protein” (Proceedings of the National Academy of Sciences of the …, 2017)
